Assay results as given in patent publication EP2161266A1, “Benzofuran derivatives as orexin receptor antagonists” (EVOTEC Neurosciences GmbH, priority 2008, dated 2010).

Experiments:
[1] = biological target: T1, human Orexin-1 receptor (hOX1R) (Homo sapiens, UniProt O43613); assay: Ca2+-flux assay for IC50 determination in CHO-hOX1R cells (Orexin-A stimulated); assay type: cell-based; settings: 5nM Orexin-A agonist, fluo-4 fluorescence, compounds 1.28nM to 20µM, triplicates, read-out: 0X1
T1 construct: host or cells: CHO-K1
T1 sequence (O43613 1-425): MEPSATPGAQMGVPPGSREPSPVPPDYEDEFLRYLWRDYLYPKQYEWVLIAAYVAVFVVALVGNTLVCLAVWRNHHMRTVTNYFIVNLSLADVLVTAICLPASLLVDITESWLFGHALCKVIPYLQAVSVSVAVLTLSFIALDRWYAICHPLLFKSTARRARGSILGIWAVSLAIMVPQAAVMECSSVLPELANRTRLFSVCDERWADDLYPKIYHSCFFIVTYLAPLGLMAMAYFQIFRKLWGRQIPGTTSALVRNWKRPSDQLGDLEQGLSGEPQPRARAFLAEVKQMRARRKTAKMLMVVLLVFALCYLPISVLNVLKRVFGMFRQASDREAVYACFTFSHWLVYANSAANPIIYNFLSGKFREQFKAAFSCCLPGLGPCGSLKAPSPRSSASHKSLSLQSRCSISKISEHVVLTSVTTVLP
Text: A CHO-K1 cell line stably expressing human Orexin-1 receptor (hOX1R, coding sequence of AF041243) was obtained from Euroscreen/PerkinElmer (CHO-hOX1R, ES-330-C). A plasmid containing the human Orexin-2 receptor (hOX2R) cDNA was purchased from RZPD (RZPDo834A1045-pT-REx-DEST30). The human Orexin-2 receptor coding region was amplified in a gradient PCR reaction using hOX2Rfor (5' ccaggatccgc […]) and hOX2Rrev (5' […]) primers containing restriction sites for the restriction enzymes BamHI and NotI. The PCR reaction was performed with the LightCycler system from Roche Applied Science. The amplified DNA fragment was digested with restriction enzymes BamHI and Notl (Fermentas) and subsequently cloned into the BamHI/NotI sites of the pFB-Neo vector (Stratagene) thereby generating plasmid pFB-Neo-hOX2R. For a stably expressing CHO-hOX2R cell line viral transduction of CHO-K1 cells were performed by using the pFB-Neo-hOX2R plasmid and the pVPack vector system from Stratagene according to the manufacturer's manual. Cells expressing the hOX2 receptor were selected using G418 at a final concentration of 500µg/ml and single cell clones were produced by limited dilution cloning.
CHO-hOX1R cells were grown in HAM F12 Nutrient Mixture (Sigma, N6658), 10%Fetal Bovine Serum (Sigma, F9665), 1% Penstrep (Sigma, p4333) and […] G418 (Sigma, A1720). CHO-hOX2R cells were grown in DMEM F12 medium (Sigma, D8437) supplemented with 10%Fetal Bovine Serum (Sigma, F9665), 1% Penstrep (Sigma, p4333) and […] G418 (Sigma, A1720). Cells were maintained under 5% CO2 atmosphere at 37°C. Cells were passaged every 2-3 days.
CHO-hOX1R and CHO-hOX2R cells were seeded at a density of 7500 cells per well into black, 384 well Costar Cellbind plates and cultured overnight in the appropriate cell culture medium as described above without G418 selection. The next day the medium was removed and the cells were incubated for 1.5hrs at 37°C in fluo-4, AM dye solution [2µM fluo-4,AM (Molecular Probes; F-14202, Lot#28C1-12) in 5mM probenecid (Sigma, P-8761, Lot# 121K1662), 0.1% Bovine Serum Albumin (BSA, MERCK, 1.12018.0100), 1xHBSS (Invitrogen, 14025-050), 20mM HEPES (Invitrogen,. 15630-056)]. […] All compound concentrations were measured in triplicates. Subsequently, agonist solution (5nM Orexin-A, TOCRIS, 1455) in 5mM probenecid, 0.1% BSA, 1xHBSS, 20mM HEPES was added during incubation of the plate at 37°C in the fluorescence plate reader (FlexStation, Molecular Devices). Fluorescence was measured for 0-60 seconds per well at an excitation of 485nm and emission of 538nm. For EC50 determination of Orexin-A the cells were incubated as described above for 20min at 37°C in probenecid buffer (5mM probenecid, 0.1% BSA, 1xHBSS, 20mM HEPES, 1%DMSO) without compound solution. Agonist injection occurred in the fluorescence plate reader (FlexStation, Molecular Devices) at different concentrations ranging from 0-100nM in 5mM probenecid, 0.1% BSA, 1xHBSS, 20mM HEPES. Detection of fluorescence was as described above.

OX1 = biological target: T2, OX1 (Mus musculus, UniProt P58307); settings: pretreatment before naloxone-precipitated withdrawal; Sharf et al, Biol Psychiatry, 2008; cited from earlier work
T2 sequence (P58307 1-416): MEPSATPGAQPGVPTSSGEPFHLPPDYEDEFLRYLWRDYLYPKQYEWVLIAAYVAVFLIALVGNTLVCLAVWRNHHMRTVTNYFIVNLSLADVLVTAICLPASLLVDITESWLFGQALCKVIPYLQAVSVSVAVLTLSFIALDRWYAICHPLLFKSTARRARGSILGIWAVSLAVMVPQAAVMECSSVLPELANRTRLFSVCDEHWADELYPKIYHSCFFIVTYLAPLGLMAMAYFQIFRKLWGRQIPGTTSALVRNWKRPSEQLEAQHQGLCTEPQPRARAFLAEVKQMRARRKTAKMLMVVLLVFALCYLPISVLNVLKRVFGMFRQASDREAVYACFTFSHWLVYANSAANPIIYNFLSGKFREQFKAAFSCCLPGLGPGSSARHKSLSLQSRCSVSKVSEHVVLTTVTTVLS

Molecule | IC50 [1] | withdrawal symptoms (OX1)
Cc1c(C(=O)Nc2ccc3c(c2)OCCO3)oc2ccccc12 [Example 1, N-(2,3-Dihydro-1,4-benzodioxin-6-yl)-3-methyl-2-benzofurancarboxamide] | < 3 µM | 
CCN(CC)c1ccc(NC(=O)c2oc3ccccc3c2C)cc1 [Example 2, N-[4-(Diethylamino)phenyl]-3-methyl-2-benzofurancarboxamide] | < 0.3 µM | 
Cc1nc2ccc(NC(=O)c3oc4ccccc4c3C)cc2o1 [Example 3, N-(2-Methyl-6-benzoxazolyl)-3-methyl-2-benzofurancarboxamide] | < 0.3 µM | 
CCN(CC)c1ccc(NC(=O)c2oc3ccccc3c2COC)cc1 [Example 4, N-[4-(Diethylamino)phenyl]-3-(methoxymethyl)-2-benzofurancarboxamide] | < 1 µM | 
CCc1c(C(=O)Nc2ccc(N(CC)CC)cc2)oc2ccccc12 [Example 5, N-[4-(Diethylamino)phenyl]-3-ethyl-2-benzofurancarboxamide] | < 0.3 µM | 
CCc1c(C(=O)Nc2ccc3nc(C)oc3c2)oc2ccccc12 [Example 6, N-(2-Methyl-6-benzoxazolyl)-3-ethyl-2-benzofurancarboxamide] | < 0.3 µM | 
Cc1nc2ccc(NC(=O)Nc3ccnc4cccnc34)cc2o1 [SB-334867] |  | striking reduction in several withdrawal symptoms

The next lines start with results.

IC50 [1] | Molecule | withdrawal symptoms (OX1)
< 3 µM | COc1ccc(NC(=O)c2oc3ccccc3c2C)cc1Cl [Example 7, N-(3-Chloro-4-methoxyphenyl)-3-methyl-2-benzofurancarboxamide] | 
< 3 µM | Cc1c(C(=O)Nc2ccc3c(c2)OCCCO3)oc2ccccc12 [Example 8, N-(3,4-dihydro-2H-1,5-benzodioxepin-7-yl)-3-methyl-2-benzofurancarboxamide] | 
< 3 µM | CCOc1ccc(NC(=O)c2oc3ccccc3c2C)cc1 [Example 9, N-(4-Ethoxyphenyl)-3-methyl-2-benzofurancarboxamide] | 
< 1 µM | Cc1c(C(=O)Nc2ccc3c(ccn3C)c2)oc2ccccc12 [Example 10, N-(1-Methyl-1H-indol-5-yl)-3-methyl-2-benzofurancarboxamide] | 
< 0.3 µM | CCN(CC)c1ccc(NC(=O)c2oc3ccccc3c2OC)cc1 [Example 12, N-[4-(Diethylamino)phenyl]-3-methoxy-2-benzofurancarboxamide] | 
< 1 µM | CCN(CC)c1ccc(NC(=O)c2cc3ccccc3o2)cc1 [Example 13, N-[4-(Diethylamino)phenyl]-2-benzofurancarboxamide] | 
< 1 µM | Cc1nc2ccc(NC(=O)c3oc4ccccc4c3C)cc2s1 [Example 14, N-(2-Methyl-6-benzothiazolyl)-3-methyl-2-benzofurancarboxamide] | 
< 3 µM | CCN(CC)c1ccc(NC(=O)c2oc3ccccc3c2NC(C)=O)cc1 [Example 15, N-[4-(Diethylamino)phenyl]-3-(acetylamino)-2-benzofurancarboxamide] | 
< 1 µM | N-(4-Thioanisolyl)-3-methyl-2-benzofurancarboxamide [Example 11] | 
